One assay has as its system mitosis cell cycle. On the set-up: method as in Taylor, 1965. The conditions noted are these: concentration of 50 nM; ref Taylor, 1965; cited from earlier work.
For another assay, the system named is A375. The experiment in a line: cells. Type of assay: cell-based. The conditions noted are these: Homo sapiens, A-375; MTT assay, 48 h. The method, then:
(§1) Cell viability was assessed using the MTT assay, as outlined in previous studies ([Majeed et al., 2014]; [Amin et al., 2025]). Briefly, A549, A375, MCF-7 and MDA-MB231 cells (10 × 10^3 cells/well) were seeded in 96-well plates and incubated for 24 h at 37°C in a 5% CO2 atmosphere. After this incubation, the cells were treated with test compounds for another 48 h. At 44th hour of treatment, the cells were incubated with MTT (2.5 mg/mL) for additional 4 h. At 48th hour, DMSO was added (100 µL/well), to dissolve formazan crystals. Absorbance was measured at 570 nm. Cell viability was calculated relative to untreated controls. IC50 values were determined from independent triplicate experiments using GraphPad™ Prism 8.0 software. […]
(In general: Tetrazolium assays rely on reduction of a dye to a coloured formazan, in cell work by metabolically active cells.)

For another assay, the system named is A549. The experiment in a line: cells. Type of assay: cell-based. The conditions noted are these: Homo sapiens, MTT assay, 48 h. The method, then:
as §1

A further assay concerns MCF-7. The assay is described as follows: cells. The conditions noted are these: Homo sapiens, MCF7; MTT assay, 48 h. Type of assay: cell-based. The method, then: as §1
For another assay, the system named is MDA-MB 231. The assay is described as follows: cells. Type of assay: cell-based. The conditions noted are these: Homo sapiens, MTT assay, 48 h. As for the experimental part: as §1

For the compound `COc1cc2c(c(OC)c1OC)-c1ccc(OC)c(=O)cc1[C@@H](NC(C)=O)CC2` [Colchicine], the “block of mitotic cells” value in the assay with mitosis cell cycle is “blocks almost all the prophase, metaphase, and anaphase cells”.
For `CC(=O)O[C@H]1C(=O)[C@@]2(C)[C@H]([C@H](OC(=O)c3ccccc3)[C@]3(O)C[C@H](OC(=O)[C@H](O)[C@@H](NC(=O)c4ccccc4)c4ccccc4)C(C)=C1C3(C)C)[C@]1(OC(C)=O)CO[C@@H]1C[C@@H]2O` [Paclitaxel], the IC50 in the assay on A375 amounted to 0.017 ± 0.028 µM; in the assay with A549, 0.028 ± 0.008 µM; in the assay with MCF-7, 0.014 ± 0.001 µM; in the assay with MDA-MB 231, 0.02 ± 0.002 µM.

A word on the IC50: it is the concentration needed to halve the response being measured.

Source of the values: publication PMC12246756 (Frontiers in Pharmacology, 2025).
